# Measured values taken from patent publication US9918452B2, “Method and apparatus for controlling herbivore fowl populations” (2345422 Ontario Inc., priority 2013, dated 2018).
# Test system: Canada Geese
# Assay: Repellent-adulterated feed plus non-adulterated attractant feed in a recreational area
# Format: in vivo
# Text: Owing to the problems encountered with both wide-scale repellent spraying and the use of repellent-treated feed on its own, a new approach to controlling the goose population at the site of Example 1 was developed. In this new approach, both repellent-adulterated feed in the form of cracked corn treated with methyl anthranilate, and non-adulterated feed (also in the form of cracked corn) was used.
# In this approach to controlling the goose population at the site of Example 1, a commercially available animal feeder with a 200 lb. capacity tripod mounted hopper and SOLAR ELITE® dispensing head were obtained from On Time Wildlife Feeders (2488 Hwy 33, Ruston, La. 71270, U.S.A.). The feeder was modified as described in Example 5 to become a repellent station. The repellent reservoir was filled with an 8% solution of methyl anthranilate solution (prepared using fifty-five percent of a commercially available REJEX-IT® solution and forty-five percent water) and the flow rate from the repellent reservoir was adjusted to be approximately 0.0025 liters per second. The hopper of the repellent station was then filled with cracked corn.
# In FIG. 1a a portion of the site described in Example 1 is depicted. […]
compound,measurement,setting,value
COC(=O)c1ccccc1N [methyl anthranilate],acceptance of repellent-adulterated cracked corn by geese,"8% methyl anthranilate solution sprayed on cracked corn at the repellent station, approx. 0.0025 liters per second",intolerable
same,return of geese to the grassy area where they are not desired,"repellent station with 8% methyl anthranilate solution plus unadulterated cracked corn on paved area, length of trial (six weeks)",did not return to grassy area 100
